# Measured values: US20190070128A1, “USE OF CANNABIDIVARIN IN THE TREATMENT OF AUTISM SPECTRUM DISORDER, ASSOCIATED DISORDERS AND SCHIZOPHRENIA” (GW Research Limited, priority 2016, published 2019)
# Experiments:
# [1] = target: T1, CB1 cannabinoid receptors (Mus musculus, UniProt P47746); conditions: MF1 mouse brain membranes; extract compared with purified CBDV; cited from earlier work
# T1 construct: in both MF1 mouse brain and hCB1-CHO cell membranes; from tissue; host or cells: MF1 mouse brain membranes
# T1 sequence (P47746 whole entry): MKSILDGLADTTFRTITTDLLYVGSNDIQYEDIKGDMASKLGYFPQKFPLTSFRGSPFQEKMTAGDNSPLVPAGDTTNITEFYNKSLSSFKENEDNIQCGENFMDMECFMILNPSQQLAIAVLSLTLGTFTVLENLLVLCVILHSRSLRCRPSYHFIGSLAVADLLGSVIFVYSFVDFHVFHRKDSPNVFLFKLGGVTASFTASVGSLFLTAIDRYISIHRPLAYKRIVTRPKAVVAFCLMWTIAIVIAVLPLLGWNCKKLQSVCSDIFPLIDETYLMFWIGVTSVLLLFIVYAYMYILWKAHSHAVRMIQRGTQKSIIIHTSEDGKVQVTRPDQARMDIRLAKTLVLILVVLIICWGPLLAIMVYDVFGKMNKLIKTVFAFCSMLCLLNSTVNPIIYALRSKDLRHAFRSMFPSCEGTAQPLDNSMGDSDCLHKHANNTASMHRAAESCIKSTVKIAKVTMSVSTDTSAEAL
# [2] = tested on: Ube3am-/p+ (AS) mice; assay: novel object recognition in Angelman syndrome mice; type: in vivo, mouse; conditions: 20 mg/kg i.p., age 7-8 weeks, vs AS vehicle
# Description: Heterozygous mice with maternal deficiency of Ube3A (Ube3am−/p+) and wild type (Ube3am+/p+) were purchased from The Jackson Laboratory (Jackson code: B6.12957-Ube3a tm1Alb/J) and maintained in a C57BL/6 background.
# Drugs were dissolved in 1:1:18 ethanol:cremophor:0.9% saline, for intraperitoneal (i.p.) administration. Drug treatment was performed daily for 35 days. CBDV was administered at 20 mg/kg.
# Novel Object Recognition: The novel object recognition assesses recognition memory in mice. The experiment started with the habituation period, during which mice were allowed to freely explore for 1 hour the apparatus which consists of a rectangular open box (40×30×30 cm width×length×height) made of grey polyvinyl chloride (PVC) illuminated by a dim light. The day after each mouse was allowed to explore two identical objects positioned in the back left and right corners for 5 min (acquisition). A video camera recorded the time spent on exploration of each object. […] The behaviour of mice was analyzed by an observer blind to the treatment. Data are expressed as percentage of recognition index (RI %), which was calculated as the percentage of the time spent exploring the novel object/time spent exploring the novel object+time spent exploring the familiar object×100.
# [3] = tested on: MeCP2 KO mice; assay: body weight gain in MeCP2 KO and WT mice; type: in vivo, mouse
# Description: CBDV was administered daily at the dose of 2, 20 and 200 mg/kg i.p. starting from PND 28 and the following signs were scored every other day: hindlimb clasping (indication of motor imbalance), tremor, gait (measure of coordination), breathing, mobility and general condition.
# The CBDV was dissolved in ethanol, cremophor and saline (1:1:18).
# Starting from PND 28, mice received a daily intraperitoneal injection of CBDV (or vehicle) at the dose of 2, 20 and 200 mg/kg. Animals were then scored every other day to evaluate the effect of CBDV treatment on motor symptoms (hindlimb clasping, gait, mobility) as well as neurological signs and general conditions (breathing abnormalities, tremors and general condition) present in MeCP2 knockout (KO) mice.
compound,measurement,setting,value
"C=C(C)[C@@H]1CCC(C)=C[C@H]1c1c(O)cc(CCC)cc1O [CBDV, Cannabidivarin]",affinity for CB1 cannabinoid receptors,[1],neither bound with high enough affinity
same,discrimination index,[2],significantly increased
same,body weight (area under the curve),[3]; MeCP2 KO mice,significantly rescued
same,reduction in body weight,"[3]; MeCP2 KO mice, 2, 20 and 200 mg/kg i.p. daily, PND 28-66",partially prevent
same,body weight (area under the curve),[3]; WT controls,without affecting
